# Source: patent publication US20250344698A1, “A METHOD OF CONTROLLING WEEDS” (SYNGENTA CROP PROTECTION AG, priority 2022, published 2025)
# Tested on: A. tuberculatus, about 60-70% of which contain the ΔG210 mutation
# Assay: Field trial, Illinois USA, visual % weed control
# Assay type: in vivo, Amaranthus tuberculatus
# Conditions: visually assessed 14 days after application
smiles,measurement,setting,value
COC(=O)CCNC(=O)C(C)Sc1cc(-n2c(=O)cc(C(F)(F)F)n(C)c2=O)c(F)cc1Cl (stereo not drawn) [Tiafenacil],Control (%),use rate 50 g ai/ha,33%
same,Control (%),use rate 100 g ai/ha,30%
same,Control (%),use rate 150 g ai/ha,33%
